Laboratory results from US5430062A, “Stilbene derivatives as anticancer agents” (priority 1993, dated 1995).
Where two headings read alike, the source gives them in different places.

Assays:
A-549 lung carcinoma = assay: MTT cytotoxicity assay, A-549; details: for IC50: Homo sapiens, A549, […]
SKMEL-5 melanoma = assay: MTT cytotoxicity assay, SKMEL-5; details: for IC50: Homo sapiens, SK-MEL-5, […], read-out: Cytotoxicity ED50, SKMEL-5
MLM melanoma = assay: MTT cytotoxicity assay, MLM
tubulin = assay: Inhibition of tubulin polymerization (turbidimetry); type: biochemical, bovine
[1] = tested on: HT-29 colon adenocarcinoma; assay: MTT cytotoxicity assay, HT-29; details: for IC50: Homo sapiens, HT-29, […]
MCF-7 breast carcinoma = assay: MTT cytotoxicity assay, MCF-7; details: for IC50: Homo sapiens, MCF7, […]
[2] = read-out: Cytotoxicity ED50, A-549
[3] = read-out: Cytotoxicity ED50, MLM
[4] = read-out: Cytotoxicity ED50, HT-29
[5] = read-out: Cytotoxicity ED50, MCF-7
[6] = first series (Table VIII and text), 37° C., 20 min, read-out: Tubulin polymerization IC50 (±S.D.)
[7] = second series (Tables V-VII, IX), read-out: Inhibition of Tubulin Polymerization IC50 (±S.D.)

| IC50 (tubulin; [7]) [nM] | Structure (SMILES) | IC50 (A-549 lung carcinoma; [2]) [nM] | IC50 (SKMEL-5 melanoma) [nM] | IC50 (MLM melanoma; [3]) [nM] | inhibition of tubulin polymerization (in words) (tubulin) | IC50 [1, 4] [nM] | IC50 (MCF-7 breast carcinoma; [5]) [nM] | IC50 (tubulin; [6]) [nM] | IC50 (A-549 lung carcinoma; read-out: Cytotoxicity ED50, A-549, A-549, MTT, six days) [nM] | IC50 (MLM melanoma; read-out: Cytotoxicity ED50, MLM, MLM, MTT, six days) [nM] | IC50 ([1]; read-out: Cytotoxicity ED50, HT-29, HT-29, MTT, six days) [nM] | IC50 (MCF-7 breast carcinoma; read-out: Cytotoxicity ED50, MCF-7, MCF-7, MTT, six days) [nM] | cytotoxicity relative to parent (in words) (A-549 lung carcinoma; A-549) | cytotoxicity relative to 5a (in words) (SKMEL-5 melanoma; SKMEL-5 cells) | cytotoxicity relative to parent (in words) (MLM melanoma; MLM) | cytotoxicity relative to 5a (in words) ([1]; HT-29 cells) | cytotoxicity relative to 5a (in words) (MCF-7 breast carcinoma; MCF cell culture) |
| --- | --- | --- | --- | --- | --- | --- | --- | --- | --- | --- | --- | --- | --- | --- | --- | --- | --- |
| – | COc1ccc(NC(=O)c2cc(OC)cc(OC)c2)cc1 [11d] | 9020 | 11900 | > 25000 | lower inhibitory activity | 14500 | 5470 | – | – | – | – | – | – | – | – | – | – |
| – | COc1ccc(CNc2cc(OC)c(OC)c(OC)c2)cc1 [12c, 4-Methoxy-N-(3,4,5-trimethoxyphenyl)benzylamine] | 830 | 1130 | > 25000 | lower inhibitory activity | 2240 | 860 | > 50000 | – | – | – | – | – | – | – | – | – |
| 21000 | COc1cc(CCc2ccc(C)cc2)cc(OC)c1OC [17d, 1-(4-Methylphenyl)-2-(3,4,5-trimethoxyphenyl)ethane] | 180 | 270 | 1400 | – | 100 | 220 | – | – | – | – | – | – | – | – | – | – |
| 18000 | CCc1ccc(CCc2cc(OC)c(OC)c(OC)c2)cc1 [17e, 1-(4-Ethylphenyl)-2-(3,4,5-trimethoxyphenyl)ethane] | 88 | 47 | 2700 | – | 16 | 160 | – | – | – | – | – | – | – | – | – | – |
| > 40000 | COc1ccc(/C(=C\c2cc(OC)c(OC)c(OC)c2)C(=O)O)cc1 [23c, (E)-2-(4-Methoxyphenyl)-3-(3,4,5-trimethoxyphenyl)-prop-2-enoic acid] | 5200 | 2300 | > 25000 | – | 5900 | 1900 | – | – | – | – | – | – | – | – | – | – |
| – | COc1ccc(/C=C/c2cc(OC)c(OC)c(OC)c2)cc1 [compound 6a, (E)-1-(4-Methoxyphenyl)-2-(3,4,5-trimethoxyphenyl)ethene] | – | 810 | – | – | – | – | > 50000 | 1180 | 2070 | 1820 | 1050 | – | – | – | – | – |
| – | COc1cc(CCc2cc(OC)c(OC)c(OC)c2)cc(OC)c1 [compound 8s] | > 25000 | > 25000 | > 25000 | lower activity | > 25000 | > 25000 | – | – | – | – | – | – | – | – | – | – |
| – | COc1cc(CCc2ccc(N)cc2)cc(OC)c1OC [compound 8z, 1-(4-Aminophenyl)-2-(3,4,5-trimethoxyphenyl)ethane] | 12200 | 12600 | > 25000 | lower activity | 24600 | 11900 | – | – | – | – | – | – | – | – | – | – |
| 6000 | CCCOc1ccc(/C=C\c2cc(OC)c(OC)c(OC)c2)cc1 [compound 15b, (Z)-1-(4-n-Propoxyphenyl)-2-(3,4,5-trimethoxyphenyl)-thene] | 39 | 14 | 65 | – | 28 | 660 | – | – | – | – | – | – | – | – | – | – |
| 6200 | COc1cc(/C=C\c2ccc(SC)cc2)cc(OC)c1OC [compound 15c, (Z)-1-(4-Methylthiophenyl)-2-(3,4,5-trimethoxyphenyl)ethene] | 0.19 | 0.004 | 3.3 | – | 0.018 | 5.4 | – | – | – | – | – | as cytotoxic as the parent compound | two orders of magnitude more potent | as cytotoxic as the parent compound | about one order of magnitude more potent | about one order of magnitude less cytotoxic than 5a |
| > 40000 | COc1cc(/C=C\c2ccc(C(C)(C)C)cc2)cc(OC)c1OC [compound 15g, (Z)-1-(4-t-Butylphenyl)-2-(3,4,5-trimethoxyphenyl)ethene] | 1020 | 210 | 4320 | – | 880 | 1570 | – | – | – | – | – | – | – | – | – | – |
| > 40000 | COc1ccc(/C=C(/C(=O)O)c2cc(OC)c(OC)c(OC)c2)cc1 [compound 23a, (E)-3-(4-Methoxyphenyl)-2-(3,4,5-trimethoxyphenyl)-prop-2-enoic acid] | 13900 | 9100 | > 25000 | – | 8400 | 12800 | – | – | – | – | – | – | – | – | – | – |
| > 40000 | COc1cccc(/C=C(/C(=O)O)c2cc(OC)c(OC)c(OC)c2)c1 [compound 23b, (E)-3-(3-Methoxyphenyl)-2-(3,4,5-trimethoxyphenyl)-prop-2-enoic acid] | 25 | 50 | > 25000 | – | 120 | > 25000 | – | – | – | – | – | – | – | – | – | – |
| > 40000 | COC(=O)/C(=C/c1cccc(OC)c1)c1cc(OC)c(OC)c(OC)c1 [compound 24b, (E)-Methyl 3-(3-methoxyphenyl)-2-(3,4,5-trimethoxy-phenyl)-prop-2-enoate] | 1300 | 1500 | 15500 | – | 700 | 1300 | – | – | – | – | – | – | – | – | – | – |
| 15000 | COc1ccc(Cc2cc(OC)c(OC)c(OC)c2)cc1 [compound 29, 4-Methoxyphenyl-(3,4,5-trimethoxyphenyl)methane] | 150 | 12 | 130 | – | 13 | 19 | – | – | – | – | – | – | – | – | – | – |
| > 40000 | COc1ccc(C(Cc2cc(OC)c(OC)c(OC)c2)C(=O)O)cc1 (stereo not drawn) [compound 33, 2-(4-Methoxyphenyl)-3-(3,4,5-trimethoxyphenyl)propionic acid] | 14300 | 7400 | > 25000 | – | 9400 | > 25000 | – | – | – | – | – | – | – | – | – | – |

| Structure (SMILES) | IC50 (tubulin; [7]) [nM] | IC50 (A-549 lung carcinoma; [2]) [nM] | IC50 (SKMEL-5 melanoma) [nM] | IC50 (MLM melanoma; [3]) [nM] | inhibition of tubulin polymerization (in words) (tubulin) | IC50 [1, 4] [nM] | IC50 (MCF-7 breast carcinoma; [5]) [nM] | IC50 (tubulin; [6]) [nM] | IC50 (A-549 lung carcinoma; read-out: Cytotoxicity ED50, A-549, A-549, MTT, six days) [nM] | IC50 (MLM melanoma; read-out: Cytotoxicity ED50, MLM, MLM, MTT, six days) [nM] | IC50 ([1]; read-out: Cytotoxicity ED50, HT-29, HT-29, MTT, six days) [nM] | IC50 (MCF-7 breast carcinoma; read-out: Cytotoxicity ED50, MCF-7, MCF-7, MTT, six days) [nM] | cytotoxicity relative to parent (in words) (A-549 lung carcinoma; A-549) | cytotoxicity relative to 5a (in words) (SKMEL-5 melanoma; SKMEL-5 cells) | cytotoxicity relative to parent (in words) (MLM melanoma; MLM) | cytotoxicity relative to 5a (in words) ([1]; HT-29 cells) | cytotoxicity relative to 5a (in words) (MCF-7 breast carcinoma; MCF cell culture) |
| --- | --- | --- | --- | --- | --- | --- | --- | --- | --- | --- | --- | --- | --- | --- | --- | --- | --- |
| COc1ccc(/C=C\c2cc(OC)c(O[Si](C)(C)C(C)(C)C)c(OC)c2)cc1 [15k, (Z)-1-[4-{(t-Butyldimethylsilyl)-oxy}-3,5-(dimethoxy)-phenyl]-2-(4-methoxyphenyl)ethene] | > 40000 | > 25000 | > 25000 | > 25000 | – | 9000 | > 25000 | – | – | – | – | – | – | – | – | – | – |
| COc1ccc(/C=C\c2cc(OC)c(OC(C)=O)c(OC)c2)cc1 [15l, (Z)-1-(4-Acetoxy-3,5-dimethoxyphenyl)-2-(4-methoxyphenyl)ethene] | 24000 | 21500 | 600 | > 25000 | – | 8700 | > 25000 | – | – | – | – | – | – | – | – | – | – |
| COc1ccc2ccc3cc(OC)c(OC)c(OC)c3c2c1 [32b, 2,3,4,6-Tetramethoxyphenanthrene] | > 40000 | > 25000 | 12500 | > 25000 | – | 1100 | > 25000 | – | – | – | – | – | – | – | – | – | – |
| COc1ccc2c(ccc3cc(OC)c(OC)c(OC)c32)c1 [32c, 2,3,4,7-Tetramethoxyphenanthrene] | > 40000 | > 25000 | > 25000 | > 25000 | – | > 25000 | > 25000 | – | – | – | – | – | – | – | – | – | – |
| COc1cc2ccc3c(OC)cccc3c2c(OC)c1OC [32d, 2,3,4,8-Tetramethoxyphenanthrene] | > 40000 | > 25000 | 12000 | > 25000 | – | 9300 | 14600 | – | – | – | – | – | – | – | – | – | – |
| CCOc1ccc(/C=C\c2cc(OC)c(OC)c(OC)c2)cc1 [compound 15a, (Z)-1-(4-Ethoxyphenyl)-2-(3,4,5-trimethoxyphenyl)ethene] | 2700 | 1.6 | 2.5 | 29 | – | 1.8 | 96 | – | – | – | – | – | – | – | – | – | – |
